# Data from publication PMC10620963, “Two-carbon tethered artemisinin–isatin hybrids: design, synthesis, anti-breast cancer potential, and in silico study” (Frontiers in Molecular Biosciences, 2023).
# Columns and labels:
# [1] = test system: MDA-MB-231/ADR (Adriamycin-resistant MDA-MB-231 cell line); assay: MTT antiproliferative assay, MDA-MB-231/ADR; type: cell-based; conditions: Homo sapiens, 24 h treatment, mean ± S.D., n = 3
# Description: (§1) The antiproliferative activity and cytotoxicity of ART–isatin hybrids 4a–k against MCF-7 (CL-0149, purchased from Procell), MDA-MB-231 (CL-0150A, purchased from Procell), and MDA-MB-231/ADR (AC337895, purchased from CASMART) breast cancer cell lines, as well as MCF-10A (CL-0525, purchased from Procell), were assessed by the 3-(4,5-dimethylthiazol-2-yl)-2,5-diphenyltetrazolium bromide (MTT) assay. ART, DHA, and Adriamycin (ADR) were used as positive controls. The selectivity index (SI: IC50(MCF-10A)/IC50(MCF-7)) and resistance index (RI: IC50(MDA-MB-231/ADR)/IC50(MDA-MB-231)) are presented in Table 3.
# (§2) MCF-7, MDA-MB-231 and MDA-MB-231/ADR breast cancer cells (2×10^3) were plated in each well of a 96-well plate and were allowed to adhere and spread for 24 h. Cells were treated with a range of different concentrations of ART-isatin hybrids 4a-k (1, 5, 10, 20, 50, 100 µM) and reference drugs artemisinin, dihydroartemisinin, and adriamycin (1, 5, 10, 20, 50, 100 µM) and were cultured for 24 h at 37 °C. 3-(4,5-dimethyl-2-thiazolyl)-2,5-diphenyltetrazolium bromide (MTT) solution (10 µL) was added to each well, and the cultures were incubated for an additional 4 h. A further 100 µL of […] was added and incubation continued overnight. The absorbance was read at 540 nm in EnSpire, multimode reader and IC50 concentration was calculated and indicated as means SD of three in-dependent experiments. The percentage relative cell viability was determined according to the following formula: Percentage cell viability = A at 570 nm of treated samples/A at 570 nm of untreated samples × 100.
# (§3) The statistical analysis was performed using Excel © and IC50 values were estimated using GraphpadPrism5 software (Hearne Scientific Software). The experiments were performed in duplicate and the statistical significance was calculated using the student’s t-test. A p-value of less than 0.05 was used to estimate the significance of the observations. A Z-factor was calculated for each 96-well plate and assays having Z-factor above 0.05 were included in the statistical analysis.
# [2] = test system: MDA-MB-231 breast cancer cell line; assay: MTT antiproliferative assay, MDA-MB-231; type: cell-based; conditions: Homo sapiens, 24 h treatment, mean ± S.D., n = 3
# Description: as §1, §2, §3
# [3] = test system: MCF-7 breast cancer cell line; assay: MTT antiproliferative assay, MCF-7; type: cell-based, human; conditions: for IC50: Homo sapiens, MCF7, MTT, 24 h treatment, mean ± S.D., n = 3
# Description: as §1, §2, §3
# [4] = MTT cytotoxicity assay, MCF-10A; type: cell-based; conditions: human, MCF-10A normal breast cells, 72 h exposure
# Description: as §1
# The cytotoxicity (CC50) of ART-isatin hybrids 4a-k and reference drugs artemisinin, dihydroartemisinin, and adriamycin were examined by the MTT assay in MCF-10A cells. The compounds were dissolved in DMSO with different concentrations. The MCF-10A cells were maintained in culture medium at 37 °C under 5% CO2 atmosphere. Cells were seeded in 96-well plates (1×10^4 cell per well) and allowed to recover for 24 h. After 72 h of exposure, cells were harvested, and cell viability was assessed by MTT assay.
# as §3
# [5] = test system: MCF-7, MDA-MB-231, and MDA-MB-231/ADR breast cancer cell lines; assay: MTT antiproliferative assay, span over the three breast cancer cell lines; type: cell-based; conditions: Homo sapiens; span over MCF-7, MDA-MB-231, MDA-MB-231/ADR; read-out: IC50 range against the three tested breast cancer cell lines
# Description: as §1
# MCF-7, MDA-MB-231 and MDA-MB-231/ADR breast cancer cells (2×10^3) were plated in each well of a 96-well plate and were allowed to adhere and spread for 24 h. […] The absorbance was read at 540 nm in EnSpire, multimode reader and IC50 concentration was calculated and indicated as means SD of three in-dependent experiments. The percentage relative cell viability was determined according to the following formula: Percentage cell viability = A at 570 nm of treated samples/A at 570 nm of untreated samples × 100.
# The statistical analysis was performed using Excel © and IC50 values were estimated using GraphpadPrism5 software (Hearne Scientific Software). The experiments were performed in duplicate and the statistical significance was calculated using the student’s t-test. […]
IC50 [1] [µM],IC50 [2] [µM],IC50 [3] [µM],IC50 [5] [µM],Compound,"SI, selectivity index, IC50(MCF-10A)/IC50(MCF-7) [3]",IC50 at 72 h [4] [µM]
> 100,4.46 ± 0.1,18.9 ± 1.2,,"COc1cccc2c1C(=O)c1c(O)c3c(c(O)c1C2=O)C[C@@](O)(C(=O)CO)C[C@@H]3O[C@H]1C[C@H](N)[C@H](O)[C@H](C)O1 [ADR, Adriamycin, reference compound]",3.6,68.8
> 100,72.4 ± 5.3,87.6 ± 6.6,,"C[C@@H]1CC[C@H]2[C@@H](C)C(=O)O[C@@H]3O[C@@]4(C)CC[C@@H]1[C@]32OO4 [ART, artemisinin]",>1.1,> 100
82.8 ± 6.8,69.6 ± 4.7,73.2 ± 5.9,69.6 to 89.8,"C[C@H]1[C@@H](O)O[C@@H]2O[C@@]3(C)CC[C@H]4[C@H](C)CC[C@@H]1[C@@]24OO3 [DHA, dihydroartemisinin, reference compound]",>1.3,> 100
2.49 ± 0.1,3.83 ± 0.1,12.6 ± 2.1,2.49 to 12.6,"C[C@@H]1CC[C@H]2[C@@H](C)C(OCCN3C(=O)C(=O)c4ccccc43)O[C@@H]3O[C@@]4(C)CC[C@@H]1[C@]32OO4 (stereo partly drawn) [Hybrid 4a, 1-(2-(((3R,5aS,6R,8aS,9R,12R,12aR)-3,6,9-trimethyldecahydro-12H-3,12-epoxy[1,2]dioxepino[4,3-i]isochromen-10-yl)oxy)ethyl)indoline-2,3-dione]",>7.9,> 100
21.4 ± 3.1,18.6 ± 1.5,26.7 ± 2.4,,"C[C@@H]1CC[C@H]2[C@@H](C)C(OCCN3C(=O)C(=O)c4cc(F)ccc43)O[C@@H]3O[C@@]4(C)CC[C@@H]1[C@]32OO4 (stereo partly drawn) [Hybrid 4b, 5-fluoro-1-(2-(((3R,5aS,6R,8aS,9R,12R,12aR)-3,6,9-trimethyldecahydro-12H-3,12-epoxy[1,2]dioxepino[4,3-i]isochromen-10-yl)oxy)ethyl)indoline-2,3-dione]",>3.7,> 100
25.1 ± 1.9,27 ± 2.2,33.8 ± 3.2,,"COc1ccc2c(c1)C(=O)C(=O)N2CCOC1O[C@@H]2O[C@@]3(C)CC[C@H]4[C@H](C)CC[C@@H]([C@H]1C)[C@@]24OO3 (stereo partly drawn) [Hybrid 4c, 5-methoxy-1-(2-(((3R,5aS,6R,8aS,9R,12R,12aR)-3,6,9-trimethyldecahydro-12H-3,12-epoxy[1,2]dioxepino[4,3-i]isochromen-10-yl)oxy)ethyl)indoline-2,3-dione]",>2.9,> 100
19.7 ± 1.2,16.2 ± 1.8,28.5 ± 2.3,,"CON=C1C(=O)N(CCOC2O[C@@H]3O[C@@]4(C)CC[C@H]5[C@H](C)CC[C@@H]([C@H]2C)[C@@]35OO4)c2ccccc21 (stereo partly drawn) [Hybrid 4d, 3-(methoxyimino)-1-(2-(((3R,5aS,6R,8aS,9R,12R,12aR)-3,6,9-trimethyldecahydro-12H-3,12-epoxy[1,2]dioxepino[4,3-i]isochromen-10-yl)oxy)ethyl)indolin-2-one]",>3.5,> 100
64.7 ± 4.9,49.6 ± 3.8,73.3 ± 5.6,,"CO/N=C1/C(=O)N(CCOC2O[C@@H]3O[C@@]4(C)CC[C@H]5[C@H](C)CC[C@@H]([C@H]2C)[C@@]35OO4)c2ccc(F)cc21 (stereo partly drawn) [Hybrid 4e, (E)-5-fluoro-3-(methoxyimino)-1-(2-(((3R,5aS,6R,8aS,9R,12R,12aR)-3,6,9-trimethyldecahydro-12H-3,12-epoxy[1,2]dioxepino[4,3-i]isochromen-10-yl)oxy)ethyl)indolin-2-one]",>1.3,> 100
33.8 ± 3,20.4 ± 1.7,37.9 ± 3.3,,"CON=C1C(=O)N(CCOC2O[C@@H]3O[C@@]4(C)CC[C@H]5[C@H](C)CC[C@@H]([C@H]2C)[C@@]35OO4)c2ccc(OC)cc21 (stereo partly drawn) [Hybrid 4f, 5-methoxy-3-(methoxyimino)-1-(2-(((3R,5aS,6R,8aS,9R,12R,12aR)-3,6,9-trimethyldecahydro-12H-3,12-epoxy[1,2]dioxepino[4,3-i]isochromen-10-yl)oxy)ethyl)indolin-2-one]",>2.6,> 100
28.4 ± 2.1,37.6 ± 2.4,48.2 ± 3.7,,"CCON=C1C(=O)N(CCOC2O[C@@H]3O[C@@]4(C)CC[C@H]5[C@H](C)CC[C@@H]([C@H]2C)[C@@]35OO4)c2ccccc21 (stereo partly drawn) [Hybrid 4g, 3-(ethoxyimino)-1-(2-(((3R,5aS,6R,8aS,9R,12R,12aR)-3,6,9-trimethyldecahydro-12H-3,12-epoxy[1,2]dioxepino[4,3-i]isochromen-10-yl)oxy)ethyl)indolin-2-one]",>2.0,> 100
59.9 ± 4.4,46.5 ± 3.9,68.3 ± 5.2,,"CCON=C1C(=O)N(CCOC2O[C@@H]3O[C@@]4(C)CC[C@H]5[C@H](C)CC[C@@H]([C@H]2C)[C@@]35OO4)c2ccc(F)cc21 (stereo partly drawn) [Hybrid 4h, 3-(ethoxyimino)-5-fluoro-1-(2-(((3R,5aS,6R,8aS,9R,12R,12aR)-3,6,9-trimethyldecahydro-12H-3,12-epoxy[1,2]dioxepino[4,3-i]isochromen-10-yl)oxy)ethyl)indolin-2-one]",>1.4,> 100
52.2 ± 3.6,50.1 ± 4.2,70.8 ± 5.9,,"CCON=C1C(=O)N(CCOC2O[C@@H]3O[C@@]4(C)CC[C@H]5[C@H](C)CC[C@@H]([C@H]2C)[C@@]35OO4)c2ccc(OC)cc21 (stereo partly drawn) [Hybrid 4i, 3-(ethoxyimino)-5-methoxy-1-(2-(((3R,5aS,6R,8aS,9R,12R,12aR)-3,6,9-trimethyldecahydro-12H-3,12-epoxy[1,2]dioxepino[4,3-i]isochromen-10-yl)oxy)ethyl)indolin-2-one]",>1.4,> 100
> 100,> 100,> 100,,"C[C@@H]1CC[C@H]2[C@@H](C)C(OCCN3C(=O)C(=NOCc4ccccc4)c4cc(F)ccc43)O[C@@H]3O[C@@]4(C)CC[C@@H]1[C@]32OO4 (stereo partly drawn) [Hybrid 4j, 3-((benzyloxy)imino)-5-fluoro-1-(2-(((3R,5aS,6R,8aS,9R,12R,12aR)-3,6,9-trimethyldecahydro-12H-3,12-epoxy[1,2]dioxepino[4,3-i]isochromen-10-yl)oxy)ethyl)indolin-2-one]",,> 100
> 100,> 100,> 100,,"COc1ccc2c(c1)/C(=N\OCc1ccccc1)C(=O)N2CCOC1O[C@@H]2O[C@@]3(C)CC[C@H]4[C@H](C)CC[C@@H]([C@H]1C)[C@@]24OO3 (stereo partly drawn) [Hybrid 4k, (E)-3-((benzyloxy)imino)-5-methoxy-1-(2-(((3R,5aS,6R,8aS,9R,12R,12aR)-3,6,9-trimethyldecahydro-12H-3,12-epoxy[1,2]dioxepino[4,3-i]isochromen-10-yl)oxy)ethyl)indolin-2-one]",,> 100
